Assay results reported in ChEMBL document CHEMBL1157539, “Thousands of chemical starting points for antimalarial lead identification” (Nature, 2010).

System: Plasmodium falciparum
Test: GSK_TCMDC: Inhibition of Plasmodium falciparum 3D7 in whole erythrocytes, using parasite LDH activity as an index of growth.
Format: functional, organism-based
Conditions: Plasmodium falciparum, 3D7

| SMILES | XC50 |
| --- | --- |
| CCN(CC)Cc1cc(Nc2ccnc3cc(Cl)ccc23)ccc1O | 0.16 µM |
| Cn1cnc2c(Nc3ccncc3)nc(-c3ccc4c(c3)OCO4)nc21 | 1.11 µM |
| COc1cc(NC(=O)Nc2cccc3ccccc23)c(OC)cc1Cl | 0.484 µM |
| CCOC(=O)c1ccc(NC(=O)N(Cc2ccc(-c3cccc(CN4CCNCC4)c3)cc2)C2CCN(Cc3ccccc3)CC2)cc1 | 0.748 µM |
| O=C(NCCN1CCOCC1)c1ccc(CNC(=O)c2ccc(O)c(-c3ccc(Cl)c(Cl)c3)c2)cc1 | 0.929 µM |
| CN(C)c1ccc(C2(c3ccccc3)N=C(N)N(CCCc3ccccc3)C2=O)cc1 (stereo not given) | 0.971 µM |
| COc1cccc(C2CCN(CCN3CCC(NC(=O)c4ccc(-c5ccc(C#N)cc5)cc4)CC3)CC2)c1 | 0.699 µM |
| Oc1ccc2c(CNCCc3ccccc3)c(O)ccc2c1CNCCc1ccccc1 | 0.104 µM |
| c1ccc2cc3c(Nc4ccc(N5CCCCC5)cc4)ccnc3cc2c1 | 0.739 µM |
| COc1ccccc1CN1CCC(CNC(=O)c2cc(-c3cccc(C(F)(F)F)c3)cs2)C1 (stereo not given) | 1.31 µM |
| Cc1cccc2nc(-c3ccc(-c4ccc(NC(=O)Nc5cccc(C#N)c5)cc4)cc3)[nH]c12 | 0.114 µM |
| Fc1ccc2[nH]c(-c3cccc(-c4ccc(CN5CCC(CCN6CCCCC6)CC5)cc4)c3)nc2c1 | 0.142 µM |
| COc1cc(CCNc2nc(NCc3cccc4ccccc34)nc(N3CCC(N)CC3)n2)ccc1O | 0.787 µM |
| COCCNCc1nc(-c2ccc3c(Nc4ccc(Cl)cc4F)ccnc3c2)cs1 | 1.08 µM |
| N=C(N)c1ccc(-c2cc3ccc(C(=N)N)cc3[nH]2)cc1 | 0.0599 µM |
| O=C(O)c1cc(C(F)(F)F)co1 | 0.825 µM |
| CCCc1cc(Cc2cnc(N)nc2N)cc2c1OC(C)(C)C2 | 1.08 µM |
| Cc1cccc2nc(-c3ccc(-c4ccc(CN5CCC(CCN6CCCCC6)CC5)cc4)cc3)[nH]c12 | 0.144 µM |
| COc1cc2ccccc2cc1OCCCN1CCN(CC(c2ccc(F)cc2)N2CCN(C(C)C)CC2)CC1 (stereo not given) | 0.749 µM |
| COc1cc(CN/C(=N/c2ccc(-c3ccccc3)cc2)Nc2ccc(C#N)cc2O)cc(OC)c1 | 0.718 µM |

| SMILES | XC50 |
| --- | --- |
| C=CCc1ccc(C2CCN(CCCCNC(=O)c3ccc(NC(=O)c4ccc(Cl)cc4)cc3)CC2)cc1 | 1.12 µM |
| FC(F)(F)c1ccc2[nH]c(-c3ccc(-c4cccc(CNCC5CCCO5)c4)cc3)nc2c1 (stereo not given) | 0.25 µM |
| COc1cc(NC(=O)c2sc(-c3ccc(Cl)cc3)cc2NC(=O)CN2CC[C@@H](O)C2)ccc1OCCN1CCCC1 | 0.802 µM |
| Clc1cccc(C=NNc2nc(=Nc3ccccc3)[nH]c(=Nc3ccccc3)[nH]2)c1 | 0.844 µM |
| CC(C)CNC(=O)c1cncc(-c2ccc(CN(C)C3CCN(C)CC3)cc2)c1 | 0.878 µM |
| COc1ccc(Oc2ccc(-c3c(C)[nH]c(C)c(Cl)c3=O)cc2)cc1 | 0.135 µM |
| CC(C)(C)c1ccc2[nH]c(-c3ccc(C(=O)NC4CCN(Cc5ccccc5)CC4)s3)nc2c1 | 0.359 µM |
| CC(=O)Nc1ccc(OCCCCCOc2ccc(NC(C)=O)cc2Cl)c(Cl)c1 | 0.833 µM |
| O=C(Nc1cccc(C2=NCCCN2)c1)Nc1cccc(C2=NCCCN2)c1 | 0.561 µM |
| N#Cc1cc(C(=O)c2cc(Cl)ccc2O)cn(-c2cccc(C(F)(F)F)c2)c1=O | 1.13 µM |
| C=CCOc1ccc(-c2c(C)[nH]c(C)c(Br)c2=O)cc1 | 0.283 µM |
| COc1ccc(NCc2cccc(-c3cccc(CNCCc4ccccc4)c3)c2)cc1 | 1.05 µM |
| CCCCc1ccc(NC(=O)Nc2ccc3c(c2)CCNCC3)cc1 | 0.585 µM |
| Cc1cc(N)nc2ccc(-c3ccc(CN)cc3)cc12 | 0.621 µM |
| CN1CCC(C(=O)N(Cc2ccc(-c3ccc(CNCCc4ccc(S(C)(=O)=O)cc4)cn3)cc2)C2Cc3ccccc3C2)CC1 | 0.665 µM |
| COc1ccccc1-n1ccnc1SCC(=O)Nc1cc(C(F)(F)F)ccc1Cl | 0.0093 µM |
| Cc1cc(=O)[nH]c(-n2nc(C)cc2NC(=O)C2(c3ccc(Cl)cc3)CCCC2)n1 | 0.288 µM |
| CN1CCN(c2ccc(Nc3nccc(-c4cnn5ncccc45)n3)cc2Cl)CC1 | 0.833 µM |
| Cc1ccccc1CN1CCCN(Cc2ccc(C(=O)Nc3ccc(Cl)cc3)cc2)CC1 | 0.944 µM |
| Cc1ccc2nc(C)n(C3CCN(C(=O)C4(c5ccccc5)CC4)CC3)c2c1 | 0.821 µM |
